Tested on: 966289-007-R4-J1-PDC complex spheroid viability
Experiment: Anticancer human tumor 966289-007-R4-J1-PDC patient-derived pancreatic adenocarcinoma cell line growth inhibition [RAS]
Settings: for IC50: curve of first compound; for viability, T/C: stronger effect = lower value
Outline: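 Multi-cell-type spheroids: tumor cells plus HUVEC endothelial cells and mesenchymal stem cells. RAS-pathway inhibitors were combined with targeted agents, each dosed in half-log steps down from clinical Cmax, or from 10 microM when Cmax was unknown.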
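Further: spheroids exposed to agents for one week before readout.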
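Wherever viability, T/C is given: percent viability relative to DMSO vehicle control wells as 100%.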

IC50 (second compound 0.0316 µM): > 10 µM | IC50 (second compound 0.1 µM): > 10 µM | IC50 (second compound 0.316 µM): > 10 µM | IC50 (second compound 1 µM): > 10 µM | IC50 (second compound 3.16 µM): > 10 µM | IC50 (second compound 10 µM): > 10 µM
Structure (SMILES): C[C@@H](NC(=O)c1ncnc(N)c1Cl)c1ncc(C(=O)Nc2cc(C(F)(F)F)c(Cl)cn2)s1 + C#Cc1c(F)ccc2cc(O)cc(-c3ncc4c(N5CC6CCC(C5)N6)nc(OCC56CCCN5CC(F)C6)nc4c3F)c12
viability, T/C (second compound 0.0316 µM, first compound 0.0316 µM): 109% | viability, T/C (second compound 0.0316 µM, first compound 0.1 µM): 118% | viability, T/C (second compound 0.0316 µM, first compound 0.316 µM): 130% | viability, T/C (second compound 0.0316 µM, first compound 1 µM): 119% | viability, T/C (second compound 0.0316 µM, first compound 3.16 µM): 117% | viability, T/C (second compound 0.0316 µM, first compound 10 µM): 86.8% | viability, T/C (second compound 0.1 µM, first compound 0.0316 µM): 111% | viability, T/C (second compound 0.1 µM, first compound 0.1 µM): 114% | viability, T/C (second compound 0.1 µM, first compound 0.316 µM): 103% | viability, T/C (second compound 0.1 µM, first compound 1 µM): 106% | viability, T/C (second compound 0.1 µM, first compound 3.16 µM): 109% | viability, T/C (second compound 0.1 µM, first compound 10 µM): 95.7% | viability, T/C (second compound 0.316 µM, first compound 0.0316 µM): 105% | viability, T/C (second compound 0.316 µM, first compound 0.1 µM): 126% | viability, T/C (second compound 0.316 µM, first compound 0.316 µM): 124% | viability, T/C (second compound 0.316 µM, first compound 1 µM): 111% | viability, T/C (second compound 0.316 µM, first compound 3.16 µM): 112% | viability, T/C (second compound 0.316 µM, first compound 10 µM): 75.7% | viability, T/C (second compound 1 µM, first compound 0.0316 µM): 105% | viability, T/C (second compound 1 µM, first compound 0.1 µM): 123% | viability, T/C (second compound 1 µM, first compound 0.316 µM): 134% | viability, T/C (second compound 1 µM, first compound 1 µM): 130% | viability, T/C (second compound 1 µM, first compound 3.16 µM): 130% | viability, T/C (second compound 1 µM, first compound 10 µM): 87.6% | viability, T/C (second compound 3.16 µM, first compound 0.0316 µM): 119% | viability, T/C (second compound 3.16 µM, first compound 0.1 µM): 110% | viability, T/C (second compound 3.16 µM, first compound 0.316 µM): 118% | viability, T/C (second compound 3.16 µM, first compound 1 µM): 122% | viability, T/C (second compound 3.16 µM, first compound 3.16 µM): 123% | viability, T/C (second compound 3.16 µM, first compound 10 µM): 86% | viability, T/C (second compound 10 µM, first compound 0.0316 µM): 107% | viability, T/C (second compound 10 µM, first compound 0.1 µM): 108% | viability, T/C (second compound 10 µM, first compound 0.316 µM): 134% | viability, T/C (second compound 10 µM, first compound 1 µM): 125% | viability, T/C (second compound 10 µM, first compound 3.16 µM): 124% | viability, T/C (second compound 10 µM, first compound 10 µM): 91.3%

Reference: PubChem BioAssay AID2060897 (Molecular Pharmacology Branch, DTP, NCI, 2025)
